# Experimental data from patent US20240336565A1, “SOLID FORMS OF OSANETANT” (Acer Therapeutics, Inc., priority 2021, published 2024).
# “Also recorded” adds a separate entry of the source.
# Assay: Salt screen: XRPD of isolated solids after drying at 40° C. and at 40° C./75% RH
# Type: physicochemical
# Conditions: for XRPD after drying at 40° C./75% RH: after 40° C. drying, dried at 40° C./75% RH for about 24 h, label = form after 40° C. drying; for XRPD after drying at 40° C.: isolated solids dried at 40° C. for about 24 h, label = wet form
# Procedure: To approximately 20 mg of amorphous lyophilized osanetant was added 0.3 mL of solvent for liquid counterion experiments. 0.2 mL of solvent was employed for solid counterion experiments. […] To the stirring mixture was then added 1.05 mol eq. of the appropriate counterion. Where solid counterions were used, the vial which contained the counterion was washed in to the osanetant containing vial with 0.1 mL of the appropriate solvent. Additional solvent was added where necessary. The experiments were thermally cycled as follows: heated from 25 to 40° C. at a rate of 0.1° C./min; 1 h at 40° C.; Cool to 5° C. at a rate of 0.1° C.; 1 h at 5° C.; 40° C. at a rate of 0.1° C./min; […] The crystallization experiments were thermally cycled overnight, then slurries were isolated by centrifugation. XRPD analysis was carried out on any isolated solids or gums. The XRPD plate, and the isolated solids, were then dried at 40° C. for about 24 h, and XRPD analysis was repeated. The XRPD plate was then dried at 40° C./75% RH for about 24 h and XRPD analysis was again repeated. All other samples were allowed to evaporated at ambient temperature and pressure.
Structure (SMILES),XRPD after drying at 40° C./75% RH,XRPD after drying at 40° C.,XRPD after drying at 40° C./75% RH (acetic acid)
CC(=O)N(C)C1(c2ccccc2)CCN(CCC[C@]2(c3ccc(Cl)c(Cl)c3)CCCN(C(=O)c3ccccc3)C2)CC1.O=C(O)C(O)C(O)C(=O)O [osanetant L-tartaric acid Form 1],crystallinity was lost,no change,
CC(=O)N(C)C1(c2ccccc2)CCN(CCCC2(c3ccc(Cl)c(Cl)c3)CCCN(C(=O)c3ccccc3)C2)CC1.O=C(O)C(O)C(O)C(=O)O [osanetant L-tartaric acid Form 2],crystallinity was lost,no change,
"CC(=O)N(C)C1(c2ccccc2)CCN(CCC[C@]2(c3ccc(Cl)c(Cl)c3)CCCN(C(=O)c3ccccc3)C2)CC1.CC(=O)O [osanetant acetic acid Form 1, (R)-N-(1-(3-(1-benzoyl-3-(3,4-dichlorophenyl)piperidin-3-yl)propyl)-4-phenylpiperidin-4-yl)-N-methylacetamide acetic acid]",,changed form on drying at 40 °C to Pattern 2,
"CC(=O)N(C)C1(c2ccccc2)CCN(CCC[C@]2(c3ccc(Cl)c(Cl)c3)CCCN(C(=O)c3ccccc3)C2)CC1.CC(=O)O [osanetant acetic acid Form 2, (R)-N-(1-(3-(1-benzoyl-3-(3,4-dichlorophenyl)piperidin-3-yl)propyl)-4-phenylpiperidin-4-yl)-N-methylacetamide acetic acid]",,,retained; also recorded: stable
"CC(=O)N(C)C1(c2ccccc2)CCN(CCC[C@]2(c3ccc(Cl)c(Cl)c3)CCCN(C(=O)c3ccccc3)C2)CC1.O=S(=O)(O)c1ccccc1 [osanetant benzenesulfonic acid Form 2, (R)-N-(1-(3-(1-benzoyl-3-(3,4-dichlorophenyl)piperidin-3-yl)propyl)-4-phenylpiperidin-4-yl)-N-methylacetamide benzenesulfonic acid]",converted to Pattern 1; also recorded: Form 1,,
"CC(=O)N(C)C1(c2ccccc2)CCN(CCC[C@]2(c3ccc(Cl)c(Cl)c3)CCCN(C(=O)c3ccccc3)C2)CC1.O=S(=O)(O)c1ccccc1 [osanetant benzenesulfonic acid Form 4, (R)-N-(1-(3-(1-benzoyl-3-(3,4-dichlorophenyl)piperidin-3-yl)propyl)-4-phenylpiperidin-4-yl)-N-methylacetamide benzenesulfonic acid]",converted to Pattern 1; also recorded: Form 1**,Form 4,
"CC(=O)N(C)C1(c2ccccc2)CCN(CCC[C@]2(c3ccc(Cl)c(Cl)c3)CCCN(C(=O)c3ccccc3)C2)CC1.O=C(O)c1ccccc1 [osanetant benzoic acid Form 1, (R)-N-(1-(3-(1-benzoyl-3-(3,4-dichlorophenyl)piperidin-3-yl)propyl)-4-phenylpiperidin-4-yl)-N-methylacetamide benzoic acid]",no change in form; also recorded: stable,no change in form,
"CC(=O)N(C)C1(c2ccccc2)CCN(CCC[C@]2(c3ccc(Cl)c(Cl)c3)CCCN(C(=O)c3ccccc3)C2)CC1.CCS(=O)(=O)O [osanetant ethanesulfonic acid Form 1, (R)-N-(1-(3-(1-benzoyl-3-(3,4-dichlorophenyl)piperidin-3-yl)propyl)-4-phenylpiperidin-4-yl)-N-methylacetamide ethanesulfonic acid]",,Form 2,
"CC(=O)N(C)C1(c2ccccc2)CCN(CCC[C@]2(c3ccc(Cl)c(Cl)c3)CCCN(C(=O)c3ccccc3)C2)CC1.CCS(=O)(=O)O [osanetant ethanesulfonic acid Form 2, (R)-N-(1-(3-(1-benzoyl-3-(3,4-dichlorophenyl)piperidin-3-yl)propyl)-4-phenylpiperidin-4-yl)-N-methylacetamide ethanesulfonic acid]",Amorphous,,
CC(=O)N(C)C1(c2ccccc2)CCN(CCC[C@]2(c3ccc(Cl)c(Cl)c3)CCCN(C(=O)c3ccccc3)C2)CC1.O=C(O)/C=C/C(=O)O [osanetant fumaric acid Form 1],crystallinity was lost,no change,
"CC(=O)N(C)C1(c2ccccc2)CCN(CCC[C@]2(c3ccc(Cl)c(Cl)c3)CCCN(C(=O)c3ccccc3)C2)CC1.CS(=O)(=O)O [osanetant methanesulfonic acid Form 1, (R)-N-(1-(3-(1-benzoyl-3-(3,4-dichlorophenyl)piperidin-3-yl)propyl)-4-phenylpiperidin-4-yl)-N-methylacetamide methanesulfonic acid]",Amorphous,Form 1,
"CC(=O)N(C)C1(c2ccccc2)CCN(CCC[C@]2(c3ccc(Cl)c(Cl)c3)CCCN(C(=O)c3ccccc3)C2)CC1.CS(=O)(=O)O [osanetant methanesulfonic acid Form 2, (R)-N-(1-(3-(1-benzoyl-3-(3,4-dichlorophenyl)piperidin-3-yl)propyl)-4-phenylpiperidin-4-yl)-N-methylacetamide methanesulfonic acid]",Amorphous,Form 2,
"CC(=O)N(C)C1(c2ccccc2)CCN(CCC[C@]2(c3ccc(Cl)c(Cl)c3)CCCN(C(=O)c3ccccc3)C2)CC1.Cc1ccc(S(=O)(=O)O)cc1 [osanetant p-toluenesulfonic acid Form 2, (R)-N-(1-(3-(1-benzoyl-3-(3,4-dichlorophenyl)piperidin-3-yl)propyl)-4-phenylpiperidin-4-yl)-N-methylacetamide p-toluenesulfonic acid]",converted to Pattern 1; also recorded: Form 1,retained; also recorded: Form 2,
"CC(=O)N(C)C1(c2ccccc2)CCN(CCC[C@]2(c3ccc(Cl)c(Cl)c3)CCCN(C(=O)c3ccccc3)C2)CC1.Cc1ccc(S(=O)(=O)O)cc1 [osanetant p-toluenesulfonic acid Form 3, (R)-N-(1-(3-(1-benzoyl-3-(3,4-dichlorophenyl)piperidin-3-yl)propyl)-4-phenylpiperidin-4-yl)-N-methylacetamide p-toluenesulfonic acid]",,converted to Pattern 4; also recorded: Form 4,
"CC(=O)N(C)C1(c2ccccc2)CCN(CCC[C@]2(c3ccc(Cl)c(Cl)c3)CCCN(C(=O)c3ccccc3)C2)CC1.Cc1ccc(S(=O)(=O)O)cc1 [osanetant p-toluenesulfonic acid Form 4, (R)-N-(1-(3-(1-benzoyl-3-(3,4-dichlorophenyl)piperidin-3-yl)propyl)-4-phenylpiperidin-4-yl)-N-methylacetamide p-toluenesulfonic acid]",lost crystallinity; also recorded: Amorphous,,
"CC(=O)N(C)C1(c2ccccc2)CCN(CCC[C@]2(c3ccc(Cl)c(Cl)c3)CCCN(C(=O)c3ccccc3)C2)CC1.O=P(O)(O)O [osanetant phosphoric acid Form 1, (R)-N-(1-(3-(1-benzoyl-3-(3,4-dichlorophenyl)piperidin-3-yl)propyl)-4-phenylpiperidin-4-yl)-N-methylacetamide phosphoric acid]",converted to Pattern 4; also recorded: Form 4,Form 1,
